This note sets out measurements from patent US20200331850A1, “NOVEL SULFONAMIDE CARBOXAMIDE COMPOUNDS” (Inflazome Limited, priority 2017, published 2020).

Where a name gives a salt, the structure may show the parent alone. Where only a bound is given, the exact number is not on record here.

NLRP3, sequence (Q96P20 whole entry): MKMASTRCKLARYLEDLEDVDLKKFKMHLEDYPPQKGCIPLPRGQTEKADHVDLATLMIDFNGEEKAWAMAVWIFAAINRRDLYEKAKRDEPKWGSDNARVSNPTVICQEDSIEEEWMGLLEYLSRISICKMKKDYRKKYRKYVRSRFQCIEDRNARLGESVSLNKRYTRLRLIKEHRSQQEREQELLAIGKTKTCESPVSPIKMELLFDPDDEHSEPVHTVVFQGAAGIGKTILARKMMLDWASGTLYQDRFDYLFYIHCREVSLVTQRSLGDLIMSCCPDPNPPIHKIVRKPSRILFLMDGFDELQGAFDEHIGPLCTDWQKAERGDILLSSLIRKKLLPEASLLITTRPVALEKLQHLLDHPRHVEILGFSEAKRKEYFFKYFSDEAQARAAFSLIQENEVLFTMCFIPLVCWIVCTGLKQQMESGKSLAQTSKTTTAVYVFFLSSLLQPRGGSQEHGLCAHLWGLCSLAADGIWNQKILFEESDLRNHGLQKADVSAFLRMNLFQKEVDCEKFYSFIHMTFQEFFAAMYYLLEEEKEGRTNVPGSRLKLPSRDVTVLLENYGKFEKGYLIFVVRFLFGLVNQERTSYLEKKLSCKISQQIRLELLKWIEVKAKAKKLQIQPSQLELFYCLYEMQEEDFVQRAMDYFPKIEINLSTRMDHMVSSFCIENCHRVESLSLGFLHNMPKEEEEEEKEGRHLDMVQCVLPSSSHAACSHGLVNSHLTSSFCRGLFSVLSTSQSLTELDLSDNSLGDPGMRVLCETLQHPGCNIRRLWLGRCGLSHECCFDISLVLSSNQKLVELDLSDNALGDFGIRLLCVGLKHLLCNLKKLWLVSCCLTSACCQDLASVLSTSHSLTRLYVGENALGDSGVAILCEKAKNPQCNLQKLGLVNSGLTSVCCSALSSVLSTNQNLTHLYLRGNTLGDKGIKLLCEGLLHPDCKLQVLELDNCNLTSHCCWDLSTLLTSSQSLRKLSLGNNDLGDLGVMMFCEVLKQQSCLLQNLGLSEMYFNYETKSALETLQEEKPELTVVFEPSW

This assay has as its target NLRP3 (Homo sapiens, UniProt Q96P20). Description: Human whole blood IL1β release assay (LPS + nigericin, AlphaLisa IL-1β). Format: cell-based. More on the design: Plate out 80 μl of whole blood containing 1βg/ml of LPS in 96-well, clear bottom cell culture plate; from tissue; host or cells: human whole blood from healthy donors, LPS-primed and nigericin-stimulated. Conditions: NLRP3 inhibitory activity in human whole blood, IL-1β release, 10 μM nigericin, read-out: HWB IC50. The method, then:
For systemic delivery, the ability to inhibit NLRP3 when the compounds are present within the bloodstream is of great importance. For this reason, the NLRP3 inhibitory activity of a number of compounds in human whole blood was investigated in accordance with the following protocol.
Human whole blood in Li-heparin tubes was obtained from healthy donors from a volunteer donor panel. • 1. Plate out 80 μl of whole blood containing 1βg/ml of LPS in 96-well, clear bottom cell culture plate (Corning #3585) • 2. Add 10 μl compound (8 points half-log dilution with 10 μM top dose) or vehicle (DMSO 0.1% FAC) to the appropriate wells • 3. Incubate for 3 hrs at 37° C., 5% CO2 • 4. Add 10 μl Nigericin (Sigma # N7143) (10 μM FAC) to all wells • 5. Incubate for 1 hr at 37° C., 5% CO2 • 6. At the end of the incubation period, spin plates at 300×g for 5 mins to pellet cells and remove 20 μl of supernatant and add to 96-well v-bottom plates for IL-1β analysis (note: these plates containing the supernatants can be stored at −80° C. to be analysed at a later date) • 7. IL-1β was measured according to the manufacturer protocol (Perkin Elmer-AlphaLisa IL-1 Kit AL220F-5000) • 8. IC50 data is fitted to a non-linear regression equation (log inhibitor vs response-variable slope 4-parameters)
In the case of `CCN1CCC(CS(=O)(=O)NC(=O)Nc2c3c(cc4c2CCC4)CCC3)CC1` [Example 1, 1-(1-Ethylpiperidin-4-yl)-N-((1,2,3,5,6,7-hexahydro-s-indacen-4-yl)carbamoyl)methanesulfonamide, potassium salt], the IC50 is not above 1 µM.

For `CCN(CCS(=O)(=O)NC(=O)Nc1c2c(cc3c1CCC3)CCC2)Cc1ccccc1` [Example 11, 2-(Benzyl(ethyl)amino)-N-((1,2,3,5,6,7-hexahydro-s-indacen-4-yl)carbamoyl)ethane-1-sulfonamide, potassium salt], the IC50 was not above 7.5 µM.

Consider `CCN(CCCCS(=O)(=O)NC(=O)Nc1c2c(cc3c1CCC3)CCC2)Cc1ccccc1` [Example 13, 4-(Benzyl(ethyl)amino)-N-((1,2,3,5,6,7-hexahydro-s-indacen-4-yl)carbamoyl)butane-1-sulfonamide, potassium salt], for which the IC50 is not above 5 µM.

Take `COCCCS(=O)(=O)NC(=O)Nc1c2c(cc3c1CCC3)CCC2` [Example 14, N-((1,2,3,5,6,7-Hexahydro-s-indacen-4-yl)carbamoyl)-3-methoxypropane-1-sulfonamide, Potassium Salt]: the IC50 is not above 5 µM.

For `O=C(Nc1c2c(cc3c1CCC3)CCC2)NS(=O)(=O)Cc1cccnc1` [Example 20, N-((1,2,3,5,6,7-Hexahydro-s-indacen-4-yl)carbamoyl)-1-(pyridin-3-yl)methanesulfonamide, potassium salt], the IC50 is not above 5 µM.

For the molecule `CN1CCC(CS(=O)(=O)NC(=O)Nc2c3c(cc4c2CCC4)CCC3)C1` (stereo not shown) [Example 23, N-((1,2,3,5,6,7-Hexahydro-s-indacen-4-yl)carbamoyl)-1-(1-methylpyrrolidin-3-yl)methanesulfonamide, Potassium Salt], the half-inhibitory concentration (IC50) is not above 1 µM.

`CCN(C)CCCS(=O)(=O)NC(=O)Nc1c2c(cc3c1CCC3)CCC2` [Example 27, 3-(Ethyl(methyl)amino)-N-((1,2,3,5,6,7-hexahydro-s-indacen-4-yl)carbamoyl)propane-1-sulfonamide, potassium salt]: the concentration for half-maximal inhibition (IC50) is not above 1 µM.

For the molecule `O=C(Nc1c2c(cc3c1CCC3)CCC2)NS(=O)(=O)CCN1CCCCC1` [Example 28, N-((1,2,3,5,6,7-Hexahydro-s-indacen-4-yl)carbamoyl)-2-(piperidin-1-yl)ethane-1-sulfonamide, Potassium Salt], the half-inhibitory concentration (IC50) was not above 1 µM.

`Cn1cc(CS(=O)(=O)NC(=O)Nc2c3c(cc4c2CCC4)CCC3)cn1` [Example 35, N-((1,2,3,5,6,7-hexahydro-s-indacen-4-yl)carbamoyl)-1-(1-methyl-1H-pyrazol-4-yl)methanesulfonamide]: the half-maximal inhibitory concentration (IC50) is not above 5 µM.

Turning to `CC(CN(C)C)CS(=O)(=O)NC(=O)Nc1c2c(cc3c1CCC3)CCC2` (stereo not shown) [Example 36, 3-(Dimethylamino)-N-((1,2,3,5,6,7-hexahydro-s-indacen-4-yl)carbamoyl)-2-methylpropane-1-sulfonamide, potassium salt], the IC50 is not above 1 µM.

Consider `CCN(CC)CCCS(=O)(=O)NC(=O)Nc1c(-c2ccncc2)cc(F)c2c1CCC2` [Example 44, 3-(Diethylamino)-N-((7-fluoro-5-(pyridin-4-yl)-2,3-dihydro-1H-inden-4-yl)carbamoyl)propane-1-sulfonamide], for which the IC50 was not above 1 µM.

On to `CC(=O)N(C)CCCS(=O)(=O)NC(=O)Nc1c2c(cc3c1CCC3)CCC2` [Example 53, N-(3-(N-((1,2,3,5,6,7-Hexahydro-s-indacen-4-yl)carbamoyl)sulfamoyl)propyl)-N-methylacetamide, Potassium Salt], for which the IC50 is not above 1 µM.

On to `COc1cc(-c2cc(F)cc(C(C)C)c2NC(=O)NS(=O)(=O)CC2CCN(C)C2)ccn1` (stereo not shown) [Example 58, N-((4-Fluoro-2-isopropyl-6-(2-methoxypyridin-4-yl)phenyl)carbamoyl)-1-(1-methylpyrrolidin-3-yl)methanesulfonamide], for which the IC50 is not above 1 µM.

For the molecule `COc1cc(-c2ccc3c(c2NC(=O)NS(=O)(=O)CC2CCN(C)C2)CCC3)ccn1` (stereo not shown) [Example 59, N-((5-(2-Methoxypyridin-4-yl)-2,3-dihydro-1H-inden-4-yl)carbamoyl)-1-(1-methylpyrrolidin-3-yl)methanesulfonamide], the IC50 is not above 1 µM.

In the case of `COc1cc(-c2ccc3c(c2NC(=O)NS(=O)(=O)CCOC(C)C)CCO3)ccn1` [Example 62, 2-Isopropoxy-N-((5-(2-methoxypyridin-4-yl)-2,3-dihydro-benzofuran-4-yl)carbamoyl)ethanesulfonamide, sodium salt], the IC50 was not above 1 µM.

Consider `CN(CCCS(=O)(=O)NC(=O)Nc1c2c(cc3c1CCC3)CCC2)Cc1ccccc1` [Example 67, 3-(Benzyl(methyl)amino)-N-((1,2,3,5,6,7-hexahydro-s-indacen-4-yl)carbamoyl)propane-1-sulfonamide, potassium salt], for which the IC50 was not above 10 µM.

Consider `CON(C)CCCS(=O)(=O)NC(=O)Nc1c2c(cc3c1CCC3)CCC2` [Example 70, N-((1,2,3,5,6,7-Hexahydro-s-indacen-4-yl)carbamoyl)-3-(methoxy(methyl)amino)propane-1-sulfonamide, Potassium Salt], for which the concentration for half-maximal inhibition (IC50) was not above 5 µM.

For `CC1(C)C2CC[C@@]1(CS(=O)(=O)NC(=O)Nc1c3c(cc4c1CCC4)CCC3)/C(=N/O)C2` [Example 71, N-((1,2,3,5,6,7-Hexahydro-s-indacen-4-yl)carbamoyl)-1-((1S,E)-2-(hydroxyimino)-7,7-dimethylbicyclo[2.2.1]heptan-1-yl)methane sulfonamide, Potassium Salt], the half-inhibitory concentration (IC50) was not above 10 µM.

Consider `O=C(Nc1c2c(cc3c1CCC3)CCC2)NS(=O)(=O)CCCN1CCC1` [Example 72, 3-(Azetidin-1-yl)-N-((1,2,3,5,6,7-hexahydro-s-indacen-4-yl)carbamoyl)propane-1-sulfonamide, Potassium Salt], for which the IC50 is not above 1 µM.

As to `C#CCN(C)CCCS(=O)(=O)NC(=O)Nc1c2c(cc3c1CCC3)CCC2` [Example 73], the concentration for half-maximal inhibition (IC50) was not above 5 µM.

With `CN1CCOC(CS(=O)(=O)NC(=O)Nc2c3c(cc4c2CCC4)CCC3)C1` (stereo not shown) [Example 74, N-((1,2,3,5,6,7-Hexahydro-s-indacen-4-yl)carbamoyl)-1-(4-methylmorpholin-2-yl)methanesulfonamide, Potassium Salt], the IC50 is not above 5 µM.

For `CC(CCS(=O)(=O)NC(=O)Nc1c2c(cc3c1CCC3)CCC2)N(C)C` (stereo not shown) [Example 78, 3-(Dimethylamino)-N-((1,2,3,5,6,7-hexahydro-s-indacen-4-yl)carbamoyl)butane-1-sulfonamide, potassium salt], the IC50 is not above 1 µM.

`CN1CC2(COC(CS(=O)(=O)NC(=O)Nc3c4c(cc5c3CCC5)CCC4)C2)C1` (stereo not shown) [Example 80, N-((1,2,3,5,6,7-Hexahydro-s-indacen-4-yl)carbamoyl)-1-(2-methyl-6-oxa-2-azaspiro[3.4]octan-7-yl)methanesulfonamide]: the IC50 was not above 5 µM.

Consider `CN(C)CC(C)(C)CS(=O)(=O)NC(=O)Nc1c2c(cc3c1CCC3)CCC2` [Example 81, 3-(Dimethylamino)-N-((1,2,3,5,6,7-hexahydro-s-indacen-4-yl)carbamoyl)-2,2-dimethylpropane-1-sulfonamide], for which the IC50 was not above 5 µM.

For `CN1CCCC(CS(=O)(=O)NC(=O)Nc2c3c(cc4c2CCC4)CCC3)C1` (stereo not shown) [Example 83, N-((1,2,3,5,6,7-Hexahydro-s-indacen-4-yl)carbamoyl)-1-(1-methylpiperidin-3-yl)methanesulfonamide], the IC50 is not above 1 µM.

With `CCN1CCCC(CS(=O)(=O)NC(=O)Nc2c3c(cc4c2CCC4)CCC3)C1` (stereo not shown) [Example 84, 1-(1-Ethylpiperidin-3-yl)-N-((1,2,3,5,6,7-hexahydro-s-indacen-4-yl)carbamoyl)methanesulfonamide], the IC50 is not above 1 µM.

As to `CC1CCN1CCS(=O)(=O)NC(=O)Nc1c2c(cc3c1CCC3)CCC2` (stereo not shown) [Example 89, N-((1,2,3,5,6,7-Hexahydro-s-indacen-4-yl)carbamoyl)-2-(2-methylazetidin-1-yl)ethane-1-sulfonamide], the IC50 is not above 1 µM.

With `O=C(Nc1c2c(cc3c1CCC3)CCC2)NS(=O)(=O)CCN1CC(F)C1` [Example 90, 2-(3-Fluoroazetidin-1-yl)-N-((1,2,3,5,6,7-hexahydro-s-indacen-4-yl)carbamoyl)ethane-1-sulfonamide], the half-inhibitory concentration (IC50) was not above 5 µM.

For the molecule `CC(CS(=O)(=O)NC(=O)Nc1c2c(cc3c1CCC3)CCC2)N1CCC1` (stereo not shown) [Example 91, 2-(Azetidin-1-yl)-N-((1,2,3,5,6,7-hexahydro-s-indacen-4-yl)carbamoyl)propane-1-sulfonamide], the half-inhibitory concentration (IC50) was not above 1 µM.

Consider `COC(=O)CCS(=O)(=O)NC(=O)Nc1c2c(cc3c1CCC3)CCC2` [Example 92, Methyl 3-(N-((1,2,3,5,6,7-hexahydro-s-indacen-4-yl)carbamoyl)sulfamoyl)propanoate], for which the IC50 is not above 7.5 µM.

On to `CC(C)N1CCCC(CS(=O)(=O)NC(=O)Nc2c3c(cc4c2CCC4)CCC3)C1` (stereo not shown) [Example 93, N-((1,2,3,5,6,7-Hexahydro-s-indacen-4-yl)carbamoyl)-1-(1-isopropylpiperidin-3-yl)methanesulfonamide], for which the IC50 is not above 1 µM.
